According to patent US20040127492A1 (Pharmacia Corporation, priority 2002, published 2004):
Read-outs that look alike come from different tables or passages of the source.

Columns and labels:
MAPKAPK2 (MK-2) = MAPKAPK2 (MK-2) (Homo sapiens, UniProt P49137); test: Determination of MK-2 IC50 (HSP-peptide phosphorylation, anion exchange resin capture assay); format: biochemical
Outline: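 Radiometric peptide assay: 15 nM p38α-activated MK-2, HSP-peptide, 0.03 mM ATP with [γ33P]ATP, 2% DMSO, pH 7.5, 30° C for 30 min; unreacted ATP removed on AG 1×8 resin before counting. Six concentrations in ten-fold steps, each in triplicate, gave IC50 in μM.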

MK-3 = MK-3 (Homo sapiens, UniProt Q16644); test: MK-3 inhibition IC50 (similar method to MK-2, with appropriate modifications); format: biochemical; settings: read-out: MK-3 Avg. IC50
MK-3, sequence (Q16644 whole entry, species assumed): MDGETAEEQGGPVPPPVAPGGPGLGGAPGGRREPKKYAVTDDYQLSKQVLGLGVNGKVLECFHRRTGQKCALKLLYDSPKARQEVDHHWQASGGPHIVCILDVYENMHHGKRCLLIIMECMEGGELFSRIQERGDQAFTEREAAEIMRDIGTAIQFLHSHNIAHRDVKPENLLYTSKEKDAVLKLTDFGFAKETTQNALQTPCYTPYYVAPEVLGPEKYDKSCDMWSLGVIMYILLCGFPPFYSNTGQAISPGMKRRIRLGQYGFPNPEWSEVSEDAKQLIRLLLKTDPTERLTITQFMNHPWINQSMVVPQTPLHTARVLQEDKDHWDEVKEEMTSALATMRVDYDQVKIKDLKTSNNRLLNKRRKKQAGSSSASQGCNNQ

[1] = Table 2, pyrazolylpyrazole MK-2 inhibitors, read-out: MK-2 Avg. IC50
[2] = Table 2, pyrazolylpyrazole MK-2 inhibitors
[3] = Table 5, other cyclic pyrazole MK-2 inhibiting compounds, read-out: MK-2 Avg. IC50
[4] = Table 5, other cyclic pyrazole MK-2 inhibiting compounds
[5] = Table 1, phenoxypyrazole MK-2 inhibitors, read-out: MK-2 Avg, IC50
[6] = Table 1, phenoxypyrazole MK-2 inhibitors

MAPKAPK2 (MK-2), sequence (P49137 whole entry, species assumed): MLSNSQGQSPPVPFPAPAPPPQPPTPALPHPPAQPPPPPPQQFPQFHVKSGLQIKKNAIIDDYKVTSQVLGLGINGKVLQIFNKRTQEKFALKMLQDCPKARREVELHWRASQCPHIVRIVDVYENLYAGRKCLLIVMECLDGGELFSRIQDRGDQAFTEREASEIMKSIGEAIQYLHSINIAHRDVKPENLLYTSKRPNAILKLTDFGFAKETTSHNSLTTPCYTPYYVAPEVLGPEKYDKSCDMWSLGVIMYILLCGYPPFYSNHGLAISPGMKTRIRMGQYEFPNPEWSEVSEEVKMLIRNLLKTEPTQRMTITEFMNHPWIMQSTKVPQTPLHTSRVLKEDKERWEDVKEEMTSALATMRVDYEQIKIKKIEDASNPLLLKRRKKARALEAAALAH

| SMILES | IC50 (MAPKAPK2 (MK-2); read-out: MK-2 Avg. IC50) | IC50 (MK-3) | IC50 (MAPKAPK2 (MK-2); [1]) | IC50 (MK-3; [2]) | further results |
| --- | --- | --- | --- | --- | --- |
| O=C(O)c1c2c(nn1CCCNCCc1ccc(Cl)c(Cl)c1)-c1ccncc1CC2 [Example 34] | 0.201 µM | 10.3 µM |  |  |  |
| CS(=O)(=O)c1ccc(-n2nc(C(N)=O)c3c2-c2cn[nH]c2CC3)cc1 [Example 35] |  |  | 124 µM | ≥ 200 µM |  |
| O=C(O)c1c2c(nn1CCCNCCCc1cccc(Cl)c1)-c1ccncc1CC2 [Example 35] | 0.207 µM | 8.57 µM |  |  |  |
| O=C(O)c1c2c(nn1CCCNCCc1ccc(/C=C/c3ccccc3)cc1)-c1cc(/C=C/c3ccccc3)ncc1CC2 [Example 35] |  |  |  |  | IC50 (MAPKAPK2 (MK-2); [3]): 0.528 µM; IC50 (MK-3; [4]): > 20 µM |
| CCOC(=O)c1c2c(nn1CCCNCCc1ccsc1)-c1cn[nH]c1CC2 [Example 36] |  |  | 133 µM | ≥ 200 µM |  |
| NCCCn1nc2c(c1C(=O)O)CCc1cc(O)c(-c3cccc(C(=O)O)c3)cc1-2 [Example 36] |  |  |  |  | IC50 (MAPKAPK2 (MK-2); [5]): 47.3 µM; IC50 (MK-3; [6]): > 200 µM |
| O=C1NCCn2nc3c(c21)CCc1cnc(/C=C/c2ccccc2)cc1-3 [Example 36] | 0.21 µM | 11.5 µM |  |  |  |
| COc1cc2c(cc1-c1cccc([N+](=O)[O-])c1)-c1nn(CCCNC(=O)OC(C)(C)C)c(C(=O)O)c1CC2 [Example 37] |  |  |  |  | IC50 (MAPKAPK2 (MK-2); [5]): 53.7 µM; IC50 (MK-3; [6]): > 200 µM |
| NCCn1nc2c(c1C(=O)O)CCc1cnc(/C=C/c3ccccc3)cc1-2 [Example 37] |  |  |  |  | IC50 (MAPKAPK2 (MK-2); [3]): 0.0413 µM; IC50 (MK-3; [4]): 1.21 µM |
| O=C(O)c1c2c(nn1CCCNCCc1ccc(-c3ccncc3)cc1)-c1ccncc1CC2 [Example 37] | 0.211 µM | 7.71 µM |  |  |  |
| O=C(O)c1c2c(nn1CCO)-c1cn[nH]c1CC2 [Example 37] |  |  | 139 µM | ≥ 200 µM |  |
| CC(C)(C)OC(=O)NCCn1nc2c(c1C(=O)O)CCc1c-2cnn1C(c1ccccc1)(c1ccccc1)c1ccccc1 [Example 38] |  |  | 139 µM | ≥ 200 µM |  |
| CCOC(=O)c1c2c(nn1CCCN)-c1cc(/C=C/c3ccccc3)ncc1CC2 [Example 38] |  |  |  |  | IC50 (MAPKAPK2 (MK-2); [3]): 3.61 µM; IC50 (MK-3; [4]): > 20 µM |
| COc1cc2c(cc1-c1cccc(C#N)c1)-c1nn(CCCNC(=O)OC(C)(C)C)c(C(=O)O)c1CC2 [Example 38] |  |  |  |  | IC50 (MAPKAPK2 (MK-2); [5]): 56.2 µM; IC50 (MK-3; [6]): > 200 µM |
| O=C(O)c1c2c(nn1CCCNCCCc1ccc(Br)cc1)-c1ccncc1CC2 [Example 38] | 0.22 µM | 10.3 µM |  |  |  |
| CC(C)(C)c1ccc(CCCNCCCn2nc3c(c2C(=O)O)CCc2cnccc2-3)cc1 [Example 39] | 0.234 µM | 11.6 µM |  |  |  |
| CONC(=O)c1[nH]nc2c1CCc1[nH]ncc1-2 [Example 39] |  |  | 141 µM | 180 µM |  |
| Cn1nc(C(=O)O)c2c1-c1ccc(O)cc1CC2 [Example 39] |  |  |  |  | IC50 (MAPKAPK2 (MK-2); [5]): 56.2 µM; IC50 (MK-3; [6]): > 200 µM |
| CC(C)c1cccc(-c2ccc(CCNCCCn3nc4c(c3C(=O)O)CCc3cnccc3-4)cc2)c1 [Example 40] | 0.245 µM | 16.1 µM |  |  |  |

| SMILES | IC50 (MAPKAPK2 (MK-2); read-out: MK-2 Avg. IC50) | IC50 (MK-3) | IC50 (MAPKAPK2 (MK-2); [1]) | IC50 (MK-3; [2]) | further results |
| --- | --- | --- | --- | --- | --- |
| COc1cc2c(cc1CCc1ccc(Cl)cc1)-c1nn(CCCNC(=O)OC(C)(C)C)c(C(=O)O)c1CC2 [Example 40] |  |  |  |  | IC50 (MAPKAPK2 (MK-2); [5]): 59.6 µM; IC50 (MK-3; [6]): > 200 µM |
| NS(=O)(=O)c1ccc(-n2nc(C(=O)O)c3c2-c2cn[nH]c2CC3)cc1 [Example 40] |  |  | 145 µM | ≥ 200 µM |  |
| COc1cc2c(cc1-c1cccc(C(F)(F)F)c1)-c1nn(CCCNC(=O)OC(C)(C)C)c(C(=O)O)c1CC2 [Example 41] |  |  |  |  | IC50 (MAPKAPK2 (MK-2); [5]): 63.8 µM; IC50 (MK-3; [6]): > 200 µM |
| O=C(O)c1c2c(nn1CC(F)(F)F)-c1cn[nH]c1CC2 [Example 41] |  |  | 150 µM | ≥ 200 µM |  |
| O=C(O)c1c2c(nn1CCCNCCc1cccs1)-c1ccncc1CC2 [Example 41] | 0.269 µM | 15.7 µM |  |  |  |
| CN(C)c1ccc(-c2cc3c(cn2)CCc2c-3nn3c2C(=O)NCC3)cc1 [Example 42] | 0.272 µM | 36 µM |  |  |  |
| COc1cc2c(cc1-c1ccc(C(C)(C)C)cc1)-c1nn(CCCNC(=O)OC(C)(C)C)c(C(=O)O)c1CC2 [Example 42] |  |  |  |  | IC50 (MAPKAPK2 (MK-2); [5]): 65.7 µM; IC50 (MK-3; [6]): > 200 µM |
| O=C(O)c1nn(CC(F)(F)F)c2c1CCc1[nH]ncc1-2 [Example 42] |  |  | 180 µM | ≥ 200 µM |  |
| C=CCn1nc2c(c1C(N)=O)CCc1[nH]ncc1-2 [Example 43] |  |  | 181 µM | ≥ 200 µM |  |
| COc1ccc(-c2cc3c(cn2)CCc2c-3nn3c2C(=O)NCCC3)cc1OC [Example 43] | 0.288 µM | 15.8 µM |  |  |  |
| CCOC(=O)c1c2c(nn1CCCN)-c1c(SCc3ccccc3)n[nH]c1CC2 [Example 44] |  |  | 181 µM | ≥ 200 µM |  |
| COc1cc2c(cc1-c1cccc([N+](=O)[O-])c1)-c1nn(CCNC(=O)OC(C)(C)C)c(C(=O)O)c1CC2 [Example 44] |  |  |  |  | IC50 (MAPKAPK2 (MK-2); [5]): 82.2 µM; IC50 (MK-3; [6]): > 200 µM |
| O=C(O)c1c2c(nn1CCCNCCc1ccc(-c3ccccc3)cc1)-c1ccncc1CC2 [Example 44] | 0.316 µM | 5.01 µM |  |  |  |
| Nc1cc2c(cc1O)CCc1c-2nn2c1C(=O)NCCC2 [Example 45] |  |  |  |  | IC50 (MAPKAPK2 (MK-2); [5]): 88.7 µM; IC50 (MK-3; [6]): > 200 µM |
| O=C(O)c1[nH]nc2c1CCc1[nH]ncc1-2 [Example 45] |  |  | 188 µM | ≥ 200 µM |  |
| CCOCn1ncc2c1CCc1c-2n[nH]c1C(N)=O [Example 46] |  |  | ≥ 200 µM | 145 µM |  |
| COc1cc2c(cc1-c1ccc(F)c(F)c1)-c1nn(CCCNC(=O)OC(C)(C)C)c(C(=O)O)c1CC2 [Example 46] |  |  |  |  | IC50 (MAPKAPK2 (MK-2); [5]): 92.7 µM; IC50 (MK-3; [6]): > 200 µM |
| O=C(O)c1c2c(nn1CCCNCCc1ccc(Br)cc1)-c1ccncc1CC2 [Example 46] | 0.325 µM | 10.7 µM |  |  |  |
| CCOC(=O)c1[nH]nc2c1CCc1c-2cnn1-c1ccccc1 [Example 47] |  |  | ≥ 200 µM | ≥ 200 µM |  |

| SMILES | IC50 (MAPKAPK2 (MK-2); read-out: MK-2 Avg. IC50) | IC50 (MK-3) | IC50 (MAPKAPK2 (MK-2); [1]) | IC50 (MK-3; [2]) | further results |
| --- | --- | --- | --- | --- | --- |
| O=C(O)c1c2c(nn1CCCNCCc1ccc(Cl)cc1Cl)-c1ccncc1CC2 [Example 47] | 0.347 µM | 6.59 µM |  |  |  |
| CC1Cc2c(n[nH]c2C(=O)O)-c2ccc(O)cc21 (stereo not shown) [Example 48] |  |  |  |  | IC50 (MAPKAPK2 (MK-2); [5]): 97.1 µM; IC50 (MK-3; [6]): > 200 µM |
| CNC(=O)c1nn(-c2ccc(S(N)(=O)=O)cc2)c2c1CCc1c-2cnn1Cc1ccccc1 [Example 48] |  |  | ≥ 200 µM | ≥ 200 µM |  |
| O=C(O)c1c2c(nn1CCCNS(=O)(=O)Cc1ccccc1)-c1cc(-c3cnc4ccccc4c3)ncc1CC2 [Example 48] | 0.374 µM | 4.51 µM |  |  |  |
| COc1cc2c(cc1-c1ccc(Cl)cc1)-c1nn(CCCNC(=O)OC(C)(C)C)c(C(=O)O)c1CC2 [Example 49] |  |  |  |  | IC50 (MAPKAPK2 (MK-2); [5]): 98.1 µM; IC50 (MK-3; [6]): 161 µM |
| Cn1ncc2c1CCc1c-2n[nH]c1C(N)=O [Example 49] |  |  | ≥ 200 µM | ≥ 200 µM |  |
| NCC1Cn2nc3c(c2C(=O)N1)CCc1cnccc1-3 (stereo not shown) [Example 49] | 0.427 µM | 45.8 µM |  |  |  |
| CCOC(=O)c1[nH]nc2c1CCc1c-2cnn1C [Example 50] |  |  | ≥ 200 µM | ≥ 200 µM |  |
| NC(=O)c1[nH]nc2c1CCc1c-2cnn1-c1ccccc1 [Example 51] |  |  | ≥ 200 µM | ≥ 200 µM |  |
| NCCCn1nc2c(c1C(N)=O)CCc1cnc(-c3cnc4ccccc4c3)cc1-2 [Example 51] | 0.473 µM | 9.21 µM |  |  |  |
| CNC(=O)c1nn(-c2ccc(S(N)(=O)=O)cc2)c2c1CCc1[nH]ncc1-2 [Example 52] |  |  | ≥ 200 µM | ≥ 200 µM |  |
| COc1cc2c(cc1-c1ccccc1Cl)-c1nn(CCCNC(=O)OC(C)(C)C)c(C(=O)O)c1CC2 [Example 52] |  |  |  |  | IC50 (MAPKAPK2 (MK-2); [5]): 109 µM; IC50 (MK-3; [6]): > 200 µM |
| O=C(O)c1c2c(nn1CCCNCCCc1ccc(Cl)cc1)-c1ccncc1CC2 [Example 52] | 0.479 µM | 34.3 µM |  |  |  |
| CCOC(=O)c1[nH]nc2c1CCc1c-2ccc(O)c1Br [Example 53] |  |  |  |  | IC50 (MAPKAPK2 (MK-2); [5]): 116 µM; IC50 (MK-3; [6]): > 200 µM |
| CN(C)c1cccc(-c2cc3c(cn2)CCc2c-3nn3c2C(=O)NCCC3)c1 [Example 53] | 0.483 µM | 4.92 µM |  |  |  |
| NC(=O)c1nn(-c2ccccc2)c2c1CCc1c-2cnn1Cc1ccccc1 [Example 53] |  |  | ≥ 200 µM | ≥ 200 µM |  |
| CCOC(=O)c1nn(-c2ccccc2)c2c1CCc1[nH]ncc1-2 [Example 54] |  |  |  | ≥ 200 µM | IC50 (MAPKAPK2 (MK-2); MK-2 Avg. IC50 (uM), Table 2, pyrazolylpyrazole MK-2 inhibitors): ≥ 200 µM |
| Cc1noc(C)c1-c1cc2c(cc1O)CCc1c-2nn(CCCN)c1C(=O)O [Example 55] |  |  |  |  | IC50 (MAPKAPK2 (MK-2); [5]): 136 µM; IC50 (MK-3; [6]): 169 µM |
